ChEMBL document CHEMBL1201862, “PubChem BioAssay data set” (2004)
Calls of active or inactive are those of the source.

Experiments:
[1] = target: Eukaryotic translation initiation factor 4E (Mus musculus, UniProt P63073); assay: eIF4E–eIF4G protein interaction inhibitors, dose response, biochemical, TR-FRET (AID 855); format: functional;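 note: potency for disrupting eIF4E binding to eIF4GI seen as loss of FRET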
Hexokinase HKDC1 = target: T1, Hexokinase HKDC1 (Homo sapiens, UniProt Q2TB90); assay: HKDC1 hexokinase inhibitors, dose response, biochemical, W721R variant (AID 504729); format: functional
T1 sequence (Q2TB90 whole entry): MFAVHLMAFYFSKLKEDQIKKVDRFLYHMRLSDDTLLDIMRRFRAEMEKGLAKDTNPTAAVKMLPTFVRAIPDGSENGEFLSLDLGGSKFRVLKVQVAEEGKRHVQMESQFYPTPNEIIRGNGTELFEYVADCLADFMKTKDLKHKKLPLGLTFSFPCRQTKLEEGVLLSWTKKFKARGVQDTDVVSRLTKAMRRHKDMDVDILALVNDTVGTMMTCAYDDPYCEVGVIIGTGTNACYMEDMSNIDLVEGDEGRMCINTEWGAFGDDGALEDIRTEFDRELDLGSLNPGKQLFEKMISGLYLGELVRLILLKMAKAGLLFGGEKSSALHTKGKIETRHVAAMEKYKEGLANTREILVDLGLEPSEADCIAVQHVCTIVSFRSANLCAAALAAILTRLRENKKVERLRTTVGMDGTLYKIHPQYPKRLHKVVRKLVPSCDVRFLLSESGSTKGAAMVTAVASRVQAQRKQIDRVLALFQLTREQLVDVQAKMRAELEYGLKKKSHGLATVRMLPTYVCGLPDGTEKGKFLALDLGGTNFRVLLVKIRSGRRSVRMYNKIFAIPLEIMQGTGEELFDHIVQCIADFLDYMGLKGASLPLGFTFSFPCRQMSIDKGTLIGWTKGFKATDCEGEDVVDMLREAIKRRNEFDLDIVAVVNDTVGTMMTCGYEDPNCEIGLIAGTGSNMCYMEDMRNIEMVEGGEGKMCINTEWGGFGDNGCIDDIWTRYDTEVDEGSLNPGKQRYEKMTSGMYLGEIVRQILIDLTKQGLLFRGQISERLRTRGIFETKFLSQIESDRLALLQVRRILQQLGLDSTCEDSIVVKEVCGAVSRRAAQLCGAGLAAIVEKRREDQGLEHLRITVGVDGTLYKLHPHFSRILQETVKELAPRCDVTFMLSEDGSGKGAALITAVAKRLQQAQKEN

[2] = target: Tyrosine-protein phosphatase non-receptor type 11 (Homo sapiens, UniProt Q06124); assay: SHP2 phosphatase inhibition, dose response, selectivity assay for STEP inhibitor project, biochemical (AID 602367); format: functional; conditions: read-out: IC50_Mean
Tyrosine-protein phosphatase non-receptor type 11, sequence (Q06124 whole entry): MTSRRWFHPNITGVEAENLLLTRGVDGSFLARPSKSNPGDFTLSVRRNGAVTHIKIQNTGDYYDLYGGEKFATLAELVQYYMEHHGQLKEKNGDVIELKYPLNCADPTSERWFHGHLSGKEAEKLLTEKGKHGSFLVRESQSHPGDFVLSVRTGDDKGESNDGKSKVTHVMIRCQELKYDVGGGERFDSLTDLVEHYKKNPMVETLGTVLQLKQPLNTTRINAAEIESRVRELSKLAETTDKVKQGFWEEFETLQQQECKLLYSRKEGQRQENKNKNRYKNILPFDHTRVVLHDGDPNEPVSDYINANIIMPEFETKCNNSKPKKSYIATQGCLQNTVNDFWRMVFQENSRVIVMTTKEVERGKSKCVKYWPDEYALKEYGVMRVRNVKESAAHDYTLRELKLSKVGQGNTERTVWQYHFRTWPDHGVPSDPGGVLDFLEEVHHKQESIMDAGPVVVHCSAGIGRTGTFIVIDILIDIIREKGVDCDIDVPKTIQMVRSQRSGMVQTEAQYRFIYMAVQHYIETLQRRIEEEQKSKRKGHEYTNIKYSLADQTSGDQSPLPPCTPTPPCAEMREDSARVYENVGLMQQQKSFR

[3] = target: Tyrosine-protein phosphatase non-receptor type 5 (Homo sapiens, UniProt P54829); assay: STEP phosphatase inhibitors, confirmation, biochemical, fluorescence intensity, uHTS hits (AID 602372); format: functional; conditions: read-out: IC50_Mean
Tyrosine-protein phosphatase non-receptor type 5, sequence (P54829 whole entry): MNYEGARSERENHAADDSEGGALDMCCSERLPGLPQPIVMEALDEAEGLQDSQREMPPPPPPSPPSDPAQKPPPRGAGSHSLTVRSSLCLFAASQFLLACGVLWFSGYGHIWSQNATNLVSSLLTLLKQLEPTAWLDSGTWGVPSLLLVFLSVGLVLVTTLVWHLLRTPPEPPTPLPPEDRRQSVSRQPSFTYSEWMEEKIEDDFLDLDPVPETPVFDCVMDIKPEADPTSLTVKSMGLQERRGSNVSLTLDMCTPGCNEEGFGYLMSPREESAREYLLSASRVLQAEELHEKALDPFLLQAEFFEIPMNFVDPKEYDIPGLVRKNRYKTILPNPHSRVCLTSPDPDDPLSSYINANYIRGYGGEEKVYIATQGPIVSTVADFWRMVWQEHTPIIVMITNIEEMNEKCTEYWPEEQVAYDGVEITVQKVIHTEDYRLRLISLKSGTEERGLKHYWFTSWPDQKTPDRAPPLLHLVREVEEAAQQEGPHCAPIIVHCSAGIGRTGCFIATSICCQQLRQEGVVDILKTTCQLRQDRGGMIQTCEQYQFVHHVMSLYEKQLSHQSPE

[4] = target: Dual specificity protein phosphatase 3 (Homo sapiens, UniProt P51452); assay: VHR phosphatase inhibition, dose response, selectivity assay for STEP inhibitor project, biochemical (AID 602374); format: functional; conditions: read-out: IC50_Mean
Dual specificity protein phosphatase 3, sequence (P51452 whole entry): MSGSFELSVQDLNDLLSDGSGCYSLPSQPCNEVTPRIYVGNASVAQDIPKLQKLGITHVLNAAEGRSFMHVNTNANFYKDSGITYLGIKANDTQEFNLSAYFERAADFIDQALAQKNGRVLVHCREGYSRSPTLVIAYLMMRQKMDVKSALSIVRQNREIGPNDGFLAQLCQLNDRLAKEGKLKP

[5] = target: T2, DNA repair protein RAD52 homolog (Homo sapiens, UniProt P43351); format: functional, biochemical
T2 sequence (P43351 whole entry): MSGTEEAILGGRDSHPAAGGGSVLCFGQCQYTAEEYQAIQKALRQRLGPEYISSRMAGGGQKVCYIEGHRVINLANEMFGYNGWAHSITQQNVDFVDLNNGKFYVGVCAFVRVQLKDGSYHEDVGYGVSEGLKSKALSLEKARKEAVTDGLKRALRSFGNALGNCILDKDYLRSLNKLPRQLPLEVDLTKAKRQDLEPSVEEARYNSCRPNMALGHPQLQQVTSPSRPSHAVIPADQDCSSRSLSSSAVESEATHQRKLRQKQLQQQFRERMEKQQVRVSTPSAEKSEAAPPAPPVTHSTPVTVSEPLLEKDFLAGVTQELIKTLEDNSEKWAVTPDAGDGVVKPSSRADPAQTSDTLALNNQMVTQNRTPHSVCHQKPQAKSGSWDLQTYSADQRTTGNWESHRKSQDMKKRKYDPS

[6] = target: T3, Histone-lysine N-methyltransferase NSD2 (Homo sapiens, UniProt O96028); format: biochemical
T3 sequence (O96028 whole entry): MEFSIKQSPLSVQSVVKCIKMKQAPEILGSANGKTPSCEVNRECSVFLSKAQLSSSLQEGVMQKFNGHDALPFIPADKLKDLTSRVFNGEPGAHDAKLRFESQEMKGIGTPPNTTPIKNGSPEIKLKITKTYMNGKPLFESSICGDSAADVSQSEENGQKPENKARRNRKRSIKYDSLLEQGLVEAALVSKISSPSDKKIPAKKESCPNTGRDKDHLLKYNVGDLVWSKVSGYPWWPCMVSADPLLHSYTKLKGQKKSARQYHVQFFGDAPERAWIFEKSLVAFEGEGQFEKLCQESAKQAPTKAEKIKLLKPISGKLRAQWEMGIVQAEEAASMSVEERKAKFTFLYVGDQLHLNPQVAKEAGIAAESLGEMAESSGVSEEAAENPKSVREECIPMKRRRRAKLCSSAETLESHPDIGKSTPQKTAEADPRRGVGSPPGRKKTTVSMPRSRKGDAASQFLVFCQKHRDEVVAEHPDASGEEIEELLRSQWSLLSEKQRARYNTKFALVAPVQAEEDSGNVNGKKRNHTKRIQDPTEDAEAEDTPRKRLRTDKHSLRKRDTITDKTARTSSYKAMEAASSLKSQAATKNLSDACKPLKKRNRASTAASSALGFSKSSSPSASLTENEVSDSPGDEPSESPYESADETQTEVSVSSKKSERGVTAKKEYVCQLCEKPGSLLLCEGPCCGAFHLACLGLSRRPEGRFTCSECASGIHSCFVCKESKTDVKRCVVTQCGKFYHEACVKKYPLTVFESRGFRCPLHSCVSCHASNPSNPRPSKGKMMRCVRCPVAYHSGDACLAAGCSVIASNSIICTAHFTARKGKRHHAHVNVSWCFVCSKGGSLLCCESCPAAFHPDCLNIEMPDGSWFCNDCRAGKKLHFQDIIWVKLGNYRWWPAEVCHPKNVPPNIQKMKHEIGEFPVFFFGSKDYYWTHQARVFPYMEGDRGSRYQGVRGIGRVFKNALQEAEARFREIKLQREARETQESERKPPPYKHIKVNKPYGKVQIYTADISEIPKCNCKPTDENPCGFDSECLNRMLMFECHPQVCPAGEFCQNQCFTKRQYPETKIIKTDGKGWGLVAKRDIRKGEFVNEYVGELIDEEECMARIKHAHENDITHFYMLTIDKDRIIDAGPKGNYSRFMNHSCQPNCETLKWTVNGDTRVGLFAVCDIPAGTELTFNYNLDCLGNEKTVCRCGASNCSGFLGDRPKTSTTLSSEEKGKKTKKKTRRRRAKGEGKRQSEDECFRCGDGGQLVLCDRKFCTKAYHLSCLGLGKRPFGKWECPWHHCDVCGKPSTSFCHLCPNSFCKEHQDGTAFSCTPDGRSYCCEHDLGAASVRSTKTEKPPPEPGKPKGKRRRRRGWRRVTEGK

[7] = target: DNA dC->dU-editing enzyme APOBEC-3G (Homo sapiens, UniProt Q9HC16); assay: Dose Response confirmation of small molecule APOBEC3G DNA Deaminase Inhibitors via a fluorescence-based single-stranded DNA deaminase assay. [Related pubchem assays (depositor defined):AID493012, AID493028]; format: functional
[8] = target: T4, Voltage-gated N-type calcium channel alpha-1B subunit/Amyloid beta A4 precursor protein-binding family A member 1 (Homo sapiens, UniProt Q00975+Q02410); assay: disruptors of Mint-PDZ/N-type channel peptide interaction – biochemical, HTRF, set 2, SAR follow-up (AID 434980); format: functional
T4 sequence (Q00975 whole entry): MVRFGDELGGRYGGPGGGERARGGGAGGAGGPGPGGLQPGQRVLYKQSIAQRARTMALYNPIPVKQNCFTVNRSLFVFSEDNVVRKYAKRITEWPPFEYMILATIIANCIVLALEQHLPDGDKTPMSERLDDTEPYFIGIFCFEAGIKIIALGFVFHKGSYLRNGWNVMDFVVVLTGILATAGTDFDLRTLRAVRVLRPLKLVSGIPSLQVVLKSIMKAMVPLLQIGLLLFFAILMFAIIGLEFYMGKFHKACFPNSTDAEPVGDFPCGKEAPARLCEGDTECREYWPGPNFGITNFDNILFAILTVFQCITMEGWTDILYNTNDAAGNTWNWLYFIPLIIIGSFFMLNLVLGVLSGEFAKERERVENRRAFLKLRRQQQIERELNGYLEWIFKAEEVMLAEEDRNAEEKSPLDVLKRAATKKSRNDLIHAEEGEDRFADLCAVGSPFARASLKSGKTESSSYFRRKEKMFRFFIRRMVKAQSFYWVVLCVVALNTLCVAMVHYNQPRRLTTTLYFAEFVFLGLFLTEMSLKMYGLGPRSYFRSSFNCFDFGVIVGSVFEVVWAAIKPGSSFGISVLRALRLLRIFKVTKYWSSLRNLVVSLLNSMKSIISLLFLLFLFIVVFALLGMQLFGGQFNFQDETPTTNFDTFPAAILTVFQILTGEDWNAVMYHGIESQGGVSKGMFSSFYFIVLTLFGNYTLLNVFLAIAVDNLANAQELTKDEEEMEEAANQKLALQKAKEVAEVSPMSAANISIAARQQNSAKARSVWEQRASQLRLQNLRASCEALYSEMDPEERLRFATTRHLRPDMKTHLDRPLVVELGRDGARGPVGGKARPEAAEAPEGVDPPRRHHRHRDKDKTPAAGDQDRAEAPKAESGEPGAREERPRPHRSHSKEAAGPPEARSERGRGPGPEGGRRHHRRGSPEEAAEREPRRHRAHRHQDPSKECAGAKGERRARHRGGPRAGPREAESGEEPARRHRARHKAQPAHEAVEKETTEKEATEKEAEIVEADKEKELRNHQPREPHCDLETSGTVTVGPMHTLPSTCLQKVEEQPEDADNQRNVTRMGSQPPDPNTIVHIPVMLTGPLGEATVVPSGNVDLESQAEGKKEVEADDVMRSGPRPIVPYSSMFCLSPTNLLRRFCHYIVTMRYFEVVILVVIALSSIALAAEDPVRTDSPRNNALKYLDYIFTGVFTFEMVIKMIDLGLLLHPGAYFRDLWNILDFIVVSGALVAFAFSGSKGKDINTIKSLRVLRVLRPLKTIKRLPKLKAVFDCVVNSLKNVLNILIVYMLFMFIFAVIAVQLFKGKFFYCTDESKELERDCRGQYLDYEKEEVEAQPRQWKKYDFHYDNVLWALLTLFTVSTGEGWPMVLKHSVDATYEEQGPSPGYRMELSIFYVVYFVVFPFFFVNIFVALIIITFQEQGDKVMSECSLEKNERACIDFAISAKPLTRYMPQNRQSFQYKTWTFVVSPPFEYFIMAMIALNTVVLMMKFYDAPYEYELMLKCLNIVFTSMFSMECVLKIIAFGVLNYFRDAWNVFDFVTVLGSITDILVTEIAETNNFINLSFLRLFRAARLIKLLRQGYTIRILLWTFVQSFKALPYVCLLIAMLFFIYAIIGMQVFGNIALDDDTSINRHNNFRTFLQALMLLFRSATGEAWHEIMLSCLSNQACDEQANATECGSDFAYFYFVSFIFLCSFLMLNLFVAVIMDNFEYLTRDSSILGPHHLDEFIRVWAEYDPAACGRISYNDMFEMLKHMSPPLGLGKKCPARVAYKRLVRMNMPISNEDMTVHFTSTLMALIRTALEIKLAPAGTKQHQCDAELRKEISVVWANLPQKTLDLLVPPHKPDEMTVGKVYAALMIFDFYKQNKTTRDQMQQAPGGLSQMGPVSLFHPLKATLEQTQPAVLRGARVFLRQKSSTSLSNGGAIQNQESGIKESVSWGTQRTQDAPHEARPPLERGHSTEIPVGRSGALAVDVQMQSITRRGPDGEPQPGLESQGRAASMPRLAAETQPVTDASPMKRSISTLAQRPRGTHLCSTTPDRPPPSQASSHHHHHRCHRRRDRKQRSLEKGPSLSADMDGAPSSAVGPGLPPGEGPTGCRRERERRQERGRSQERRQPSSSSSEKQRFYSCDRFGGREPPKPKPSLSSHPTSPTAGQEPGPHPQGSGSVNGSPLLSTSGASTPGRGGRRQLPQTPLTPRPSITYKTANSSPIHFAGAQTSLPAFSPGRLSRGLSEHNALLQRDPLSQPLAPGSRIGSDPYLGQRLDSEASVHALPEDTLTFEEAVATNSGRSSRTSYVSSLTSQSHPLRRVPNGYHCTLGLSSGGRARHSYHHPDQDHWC
T4 sequence (Q02410 whole entry): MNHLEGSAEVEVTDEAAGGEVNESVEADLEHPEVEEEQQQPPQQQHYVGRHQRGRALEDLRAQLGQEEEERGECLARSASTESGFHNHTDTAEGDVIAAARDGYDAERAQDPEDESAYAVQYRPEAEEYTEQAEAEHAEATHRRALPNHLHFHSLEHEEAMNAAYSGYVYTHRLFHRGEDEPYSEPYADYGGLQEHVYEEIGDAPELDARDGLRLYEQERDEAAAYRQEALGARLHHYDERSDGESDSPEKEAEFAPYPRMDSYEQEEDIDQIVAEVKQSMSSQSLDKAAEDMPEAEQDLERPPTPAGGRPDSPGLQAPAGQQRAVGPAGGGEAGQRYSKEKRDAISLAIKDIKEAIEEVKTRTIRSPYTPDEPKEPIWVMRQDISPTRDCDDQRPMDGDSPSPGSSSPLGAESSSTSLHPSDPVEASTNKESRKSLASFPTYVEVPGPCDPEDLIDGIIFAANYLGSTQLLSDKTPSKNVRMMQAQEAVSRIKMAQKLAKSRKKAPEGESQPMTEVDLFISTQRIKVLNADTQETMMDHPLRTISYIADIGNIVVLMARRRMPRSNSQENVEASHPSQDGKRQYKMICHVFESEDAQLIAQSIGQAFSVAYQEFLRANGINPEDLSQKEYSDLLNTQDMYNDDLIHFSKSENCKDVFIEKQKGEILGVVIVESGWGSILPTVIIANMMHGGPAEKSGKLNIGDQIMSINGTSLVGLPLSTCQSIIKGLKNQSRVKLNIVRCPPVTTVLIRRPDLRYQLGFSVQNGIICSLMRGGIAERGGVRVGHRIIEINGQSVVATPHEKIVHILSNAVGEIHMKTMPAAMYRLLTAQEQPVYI

[9] = target: T4, Voltage-gated N-type calcium channel alpha-1B subunit/Amyloid beta A4 precursor protein-binding family A member 1; assay: disruptors of Mint-PDZ/N-type channel peptide interaction – biochemical, HTRF, SAR follow-up (AID 2489); format: functional
[10] = NIH-3T3 fibroblast cytotoxicity, dose response, cytotoxicity control, cell-based, fluorescence, Alamar Blue, secondary assay (AID 2327); format: functional;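 note: NIH-3T3 mouse fibroblasts cultured with fluconazole at 8 µg/mL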
[11] = inhibitors of firefly luciferase expression or activity, dose response, H4 neuroglioma cells, luminescence (AID 1990); format: functional, cell-based
[12] = Luminescence Cell-Based Dose Response HTS to Identify Inhibitors of 5'UTR Stem-Loop Driven Prion Protein mRNA Translation in H4 Neuroglioblastoma Cells. [Related pubchem assays: 1827 (Project Summary), 1813 (Primary HTS)]; format: functional
[13] = inhibitors of SNCA 5'UTR-driven reporter translation, confirmation, H4 neuroglioma cells, luminescence (AID 1988); format: functional, cell-based
[14] = inhibitors of intracellular T. cruzi replication, confirmation, NIH3T3 host cells, beta-gal luminescence (AID 2044); format: functional, cell-based;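 note: intracellular parasites grown in NIH/3T3 mouse fibroblasts as host cells; luminescent beta-galactosidase reporter signal from transgenic T. cruzi replicating inside host cells; inhibitors lower the luminescence signal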
[15] = target: T5, Calpain-2 catalytic subunit (Sus scrofa, UniProt P43367); assay: pig calpain II inhibitor potency, dose response, biochemical, fluorogenic peptide substrate (AID 1420); format: functional
T5 sequence (P43367 whole entry): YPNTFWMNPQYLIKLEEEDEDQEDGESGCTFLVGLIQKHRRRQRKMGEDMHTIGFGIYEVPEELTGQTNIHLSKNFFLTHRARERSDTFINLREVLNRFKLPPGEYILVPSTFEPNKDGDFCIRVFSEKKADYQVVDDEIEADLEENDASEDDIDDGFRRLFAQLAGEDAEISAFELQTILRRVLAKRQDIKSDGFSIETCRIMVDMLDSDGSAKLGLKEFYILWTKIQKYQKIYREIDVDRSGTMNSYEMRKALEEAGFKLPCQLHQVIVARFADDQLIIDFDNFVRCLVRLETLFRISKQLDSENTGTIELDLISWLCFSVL

[16] = cytotoxicity toward NIH3T3 fibroblasts, dose response, counter-screen, cell-based, ATP luminescence, mouse fibroblasts (AID 2010); format: functional;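 note: cells exposed to compound for about 90 hours before reading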
[17] = target: Neurotensin receptor type 1 (Homo sapiens, UniProt P30989); format: functional;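 note: Image-based confirmatory dose-response assay measuring agonist activity at NTR1; NTR1-expressing U2OS osteosarcoma cells imaged for beta-arrestin GFP spot formation; agonist potency where compounds increase beta-arrestin recruitment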
[18] = cytotoxicity in HEK-293T cells, dose response, cytotoxicity control for TCR NF-kB inhibitor project, luminescence, T-cell screen hits (AID 489026); format: functional, cell-based;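 note: cells exposed to compound about 14 hours before the viability readout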
[19] = Luminescence Cell-Based Dose Retest to Confirm Inhibitors of Cancer Stem Cells. [Related pubchem assays (depositor defined):AID2717, AID2721]; format: functional; conditions: Homo sapiens
[20] = target: DNA damage-inducible transcript 3 protein (Mus musculus, UniProt P35639); format: functional, Cricetulus griseus
DNA damage-inducible transcript 3 protein, sequence (P35639 whole entry): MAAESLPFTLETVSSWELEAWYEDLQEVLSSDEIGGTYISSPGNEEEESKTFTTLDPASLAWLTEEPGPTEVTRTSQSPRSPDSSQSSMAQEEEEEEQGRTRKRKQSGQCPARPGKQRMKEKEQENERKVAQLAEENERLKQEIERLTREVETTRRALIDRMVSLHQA

INS1 = assay: beta cell apoptosis inhibitors, cytokine rescue, dose response, luminescence, retest (AID 449756); format: functional, cell-based; conditions: Rattus norvegicus;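 note: cell death triggered by IL-1 beta plus TNF-alpha plus IFN-gamma mixture; protective hits raise ATP signal compared with cytokine alone wells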

Eukaryotic translation initiation factor 4E, sequence (P63073 whole entry): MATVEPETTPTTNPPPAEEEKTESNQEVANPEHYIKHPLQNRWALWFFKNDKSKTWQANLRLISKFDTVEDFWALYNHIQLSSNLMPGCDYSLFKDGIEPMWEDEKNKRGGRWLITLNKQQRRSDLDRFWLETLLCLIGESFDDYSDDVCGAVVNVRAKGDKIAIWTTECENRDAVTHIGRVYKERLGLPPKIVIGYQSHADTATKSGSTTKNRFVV

Structure (SMILES): N=C(NCc1ccc2c(c1)OCO2)NC(=O)c1ccccc1
- IC50 [1]: 17.3 µM (active)
- IC50 (Hexokinase HKDC1): 25.8 µM (inactive)
- IC50 [2]: 19 µM (active)
- IC50 [3]: > 80 µM (inactive)
- IC50 [4]: 24.1 µM (inactive)
- AC50 [5]: 17.2 µM (active)
- AC50 [6]: 6.74 µM (active)

Structure (SMILES): CCNc1nc(NCC)n2c(SCC(=O)Nc3ccc(CC)cc3)nnc2n1
- IC50 [7]: 75.6 µM (active)

Structure (SMILES): O=C(c1cc(-c2ccco2)nc2ccccc12)N1CCC(c2ccccc2)C1 (stereo not drawn)
- IC50 [8]: 13.6 µM (active)
- IC50 [9]: > 56.8 µM (inactive)

Structure (SMILES): CCCCCCCCCn1c2c(c(=N)c3c1CCC3)CCCC2
- EC50 [10]: 60.2 µM (active)
- EC50 [11]: 6.69 µM (active)
- EC50 [12]: 6.11 µM (active)
- EC50 [13]: 3.52 µM (active)
- EC50 [14]: < 0.1 µM (active)
- IC50 [15]: 4.68 µM (active)
- EC50 [16]: 3.44 µM (active)
- EC50 [17]: 6.65 µM (active)
- IC50 [18]: 42.1 µM (inactive)
- EC50 (cells): 0.011 µM (active)

Structure (SMILES): COc1ccc(-c2nn(-c3ccccc3)cc2/C=N/N2C(=O)CSC2=S)cc1
- AC50 [19]: 2.08 µM (active)
- Absolute IC50 (CHOP) [20]: 10 µM
- AC50 (INS1): 4.38 µM (active)
